These results are taken from patent US6509361B1, “1,5-Diaryl substituted pyrazoles as p38 kinase inhibitors” (Pharmacia Corporation, priority 2001, dated 2003).

The structures appear in SMILES notation.

Data set [1] concerns the target T1, human p38 kinase alpha (Homo sapiens, UniProt Q16539).
T1 construct: The coding region of the human p38a cDNA was obtained by PCR-amplification from RNA isolated from the human monocyte cell line THP.1; GST (N); made in house; host or cells: E. coli DH10B
Put plainly: p38 Kinase Assay (in vitro; PHAS-I/32P-ATP format or EGFRP/33P-ATP format). Type of data set: biochemical. Particulars: activated human p38 kinase alpha, 50 μM unlabeled ATP; table does not say which of the two assay formats. The method, then: The coding region of the human p38a cDNA was obtained by PCR-amplification from RNA isolated from the human monocyte cell line THP.1. First strand cDNA was synthesized from total RNA as follows: 2 μg of RNA was annealed to 100 ng of random hexamer primers in a 10 μl reaction by heating to 70° C. for 10 minutes followed by 2 minutes on ice. cDNA was then synthesized by adding 1 μl of RNAsin (Promega, Madison Wis.), 2 μl of 50 mM dNTP's, 4 μl of 5×buffer, 2 μl of 100 mM DTT and 1 μl (200 U) of Superscript II™ […] reverse transcriptase. Random primer, dNTP's and Superscript™ reagents were all purchased from Life-Technologies, Gaithersburg, Mass. The reaction was incubated at 42° C. for 1 hour. Amplification of p38 cDNA was performed by aliquoting 5 μl of the reverse transcriptase reaction into a 100 μl PCR reaction containing the following: 80 μl dH2O, 2 μl 50 mM dNTP's, 1 μl each of forward and reverse primers (50 pmol/μl), 10 μl of 10× buffer and 1 μl Expand™ polymerase (Boehringer Mannheim). The PCR primers incorporated Bam HI sites onto the 5′ and 3′ end of the amplified fragment, and were purchased from Genosys. The forward and reverse primers were 5′-[…]-3′ and 5′[…]-3′, respectively. The PCR amplification was carried out in a DNA Thermal Cycler (Perkin Elmer) by repeating 30 cycles of 94° C. for 1 minute, 60° C. for 1 minute and 68° C. for 2 minutes. After amplification, excess primers and unincorporated dNTP's were removed from the amplified fragment with a Wizard™ PCR prep (Promega) and digested with Bam HI (New England Biolabs). The Bam HI digested fragment was ligated into BamHI digested pGEX 2T plasmid DNA (PharmaciaBiotech) using T-4 DNA ligase (New England Biolabs) as described by T. Maniatis, Molecular Cloning: A Laboratory Manual, 2nd ed. (1989). The ligation reaction was transformed into chemically competent E. coli DH10B cells purchased from Life-Technologies following the manufacturer's instructions. Plasmid DNA was isolated from the resulting bacterial colonies using a Promega Wizard™ miniprep kit. Plasmids containing the appropriate Bam HI fragment were sequenced in a DNA Thermal Cycler (Perkin Elmer) with Prism™ (Applied Biosystems Inc.). cDNA clones were identified that coded for both human p38a isoforms (Lee et al. Nature 372, 739). One of the clones which contained the cDNA for p38a-2 (CSBP-2) inserted in the cloning site of pGEX 2T, 3′ of the GST coding region was designated pMON 35802. The sequence obtained for this clone is an exact match of the cDNA clone reported by Lee et al. This expression plasmid allows for the production of a GST-p38a fusion protein.
Expression of Human p38a:
GST/p38a fusion protein was expressed from the plasmid pMON 35802 in E. coli, stain DH10B (Life Technologies, Gibco-BRL). Overnight cultures were grown in Luria Broth (LB) containing […] ampicillin. The next day, 500 ml of fresh LB was inoculated with 10 ml of overnight culture, and grown in a 2 liter flask at 37° C. with constant shaking until the culture reached an absorbance of 0.8 at 600 nm. Expression of the fusion protein was induced by addition of isopropyl b-D-thiogalactosidse (IPTG) to a final concentration of 0.05 mM. The cultures were shaken for three hours at room temperature, and the cells were harvested by centrifugation. The cell pellets were stored frozen until protein purification.
Purification of p38 Kinase-α:
All chemicals were from Sigma Chemical Co. unless noted. Twenty grams of E. coli cell pellet collected from five 1 L shake flask fermentations was resuspended in a volume of PBS (140 mM NaCl, 2.7 mM KCl, 10 mM Na2HPO4, 1.8 mM KH2PO4, pH 7.3) up to 200 ml. The cell suspension was adjusted to 5 mM DTT with 2 M DTT and then split equally into five 50 ml Falcon conical tubes. The cells were sonnicated (Ultrasonics model W375) with a 1 cm probe for 3×1 minutes (pulsed) on ice. […]

Data set [2] deals with TNF-a (LPS-stimulated human peripheral blood mononuclear cells). Put plainly: TNF Cell Assay: LPS stimulation of human PBM cells, TNF-a by ELISA. Type of data set: cell-based. Particulars: PBMC, LPS 20 ng/ml, overnight 37° C., compound 10-0.41 μM. As for the experimental part:
Method of Isolation of Human Peripheral Blood Mononuclear Cells:
Human whole blood was collected in Vacutainer tubes containing EDTA as an anticoagulant. A blood sample (7 ml) was carefully layered over 5 ml PMN Cell Isolation Medium (Robbins Scientific) in a 15 ml round bottom centrifuge tube. The sample was centrifuged at 450-500×g for 30-35 minutes in a swing out rotor at room temperature. After centrifugation, the top band of cells were removed and washed 3 times with PBS w/o calcium or magnesium. The cells were centrifuged at 400×g for 10 minutes at room temperature. The cells were resuspended in Macrophage Serum Free Medium (Gibco BRL) at a concentration of 2 million cells/ml.
LPS Stimulation of Human PBMS:
PBM cells (0.1 ml, 2 million/ml) were co-incubated with 0.1 ml compound (10-0.41 μM, final concentration) for 1 hour in flat bottom 96 well microtiter plates. Compounds were dissolved in DMSO initially and diluted in TCM for a final concentration of 0.1% DMSO. LPS (Calbiochem, 20 ng/ml, final concentration) was then added at a volume of 0.010 ml. Cultures were incubated overnight at 37° C. Supernatants were then removed and tested by ELISA for TNF-a and IL1-b. Viability was analyzed using MTS. After 0.1 ml supernatant was collected, 0.020 ml MTS was added to remaining 0.1 ml cells. The cells were incubated at 37° C. for 2-4 hours, then the O.D. was measured at […].

In data set [3] the test system is TNF-α released by U937 cells (human histiocytic lymphoma cell line). Put plainly: U937 Cell Assay: LPS stimulation of TNF production by U937 cells, ELISA. Type of data set: cell-based. The note with it: U-937, differentiated U937 cells, LPS 100 ng/ml, 4 hour incubation. As for the experimental part:
Maintenance and Differentiation of the U937 Human Histiocytic Lymphoma Cell Line:
U937 cells (ATCC) were propagated in RPMI 1640 containing 10% fetal bovine serum, 100 IU/ml penicillin, 100 μg/ml streptomycin, and 2 mM glutamine (Gibco). Fifty million cells in 100 ml media were induced to terminal monocytic differentiation by 24 hour incubation with 20 ng/ml phorbol 12-myristate 13-acetate (Sigma). The cells were washed by centrifugation (200×g for 5 min) and resuspended in 100 ml fresh medium. After 24-48 hours, the cells were harvested, centrifuged, and resuspended in culture medium at 2 million cells/ml.
LPS Stimulation of TNF Production by U937 Cells:
U937 cells (0.1 ml, 2 million/ml) were incubated with 0.1 ml compound (0.004-50 μM, final concentration) for 1 hour in 96 well microtiter plates. Compounds were prepared as 10 mM stock solutions in DMSO and diluted in culture medium to yield a final DMSO concentration of 0.1% in the cell assay. LPS (E. coli, 100 ng/ml final concentration) was then added at a volume of 0.02 ml. After 4 hour incubation at 37° C., the amount of TNF-α released in the culture medium was quantitated by ELISA. Inhibitory potency is expressed as IC50 (μM).
In general terms: ELISA stands for enzyme-linked immunosorbent assay.

T1 sequence (Q16539 whole entry): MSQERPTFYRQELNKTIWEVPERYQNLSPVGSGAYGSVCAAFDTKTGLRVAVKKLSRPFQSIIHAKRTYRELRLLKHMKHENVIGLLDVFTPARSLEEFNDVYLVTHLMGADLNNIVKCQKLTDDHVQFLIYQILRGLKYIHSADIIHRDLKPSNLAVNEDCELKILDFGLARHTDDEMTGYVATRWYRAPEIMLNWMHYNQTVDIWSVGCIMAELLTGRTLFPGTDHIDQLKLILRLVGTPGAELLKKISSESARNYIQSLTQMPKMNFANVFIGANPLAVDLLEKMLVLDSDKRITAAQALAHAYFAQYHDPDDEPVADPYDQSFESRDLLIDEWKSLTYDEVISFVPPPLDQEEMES

In general, IC50 refers to the point on the concentration scale where inhibition reaches its midpoint. As a reminder, the melting point is the temperature, or range, at which the solid turns liquid. Compound `Cc1cnn(-c2ccc(F)cc2)c1-c1ccncc1` [Example 1] displayed a melting point of 135.86 °C. It took 16.8 µM to reach half-maximal inhibition in data set [1] (IC50). The same compound showed an IC50 in data set [2] of 0.1 µM. Further, the IC50 in data set [3] was at least 10 µM.

Turning to `Cc1cccc(-n2ncc(C)c2-c2ccncc2)c1` [Example 3], the melting point came to 141.77 °C. The compound also showed a half-maximal inhibitory concentration (IC50) in data set [1] of 4.9 µM. For the same compound, inhibition in data set [2] was half-maximal at 0.6 µM (IC50). Moreover, the IC50 in data set [3] was 0.66 µM.

`CCNc1cc(-c2cc(C)nn2-c2ccc(C)cc2)ccn1` [Example 8] showed a melting point of 97.15 °C. The compound also had a 50% inhibitory concentration (IC50) in data set [1] of 0.07 µM. This compound also came in with a concentration for half-maximal inhibition (IC50) in data set [2] of 0.2 µM. In addition, the IC50 in data set [3] turned out to be 0.72 µM.

With `CNc1cc(-c2cc(C)nn2-c2ccc(C)cc2)ccn1` [Example 9], the melting point was 126.34 °C. The IC50 in data set [1] came to 0.29 µM. Also, the concentration for half-maximal inhibition (IC50) in data set [2] came out at 0.1 µM. Also, in data set [3], the IC50 came out at 17.9 µM.

In the case of `Cc1cc(-c2ccnc(NCCO)c2)n(-c2ccc(Cl)cc2)n1` [Example 11], the melting point was determined as 137.57 °C. This compound also displayed an IC50 in data set [1] of 0.07 µM. This compound returned an IC50 in data set [2] of 0.1 µM. For the same compound, the IC50 in data set [3] turned out to be 0.48 µM.

Turning to `Cc1cc(-c2ccnc(NCc3ccccc3)c2)n(-c2ccc(Cl)cc2)n1` [Example 12], the melting point is 105.53 °C. Also, the half-maximal inhibitory concentration (IC50) in data set [1] amounted to 0.003 µM. This compound returned an IC50 in data set [2] of 0.3 µM. Further, the IC50 in data set [3] was 0.2 µM.

Turning to `Cc1cc(-c2ccnc(NCCc3ccccc3)c2)n(-c2ccc(Cl)cc2)n1` [Example 13], the half-inhibitory concentration (IC50) in data set [1] is 0.05 µM; in data set [2] it was 0.1 µM; in data set [3], 0.86 µM.

As to `CCNc1cc(-c2ccncc2)n(-c2ccc(F)cc2)n1` [Example 15], the IC50 in data set [1] is over 100 µM; in data set [2], over 10 µM; in data set [3], at least 10 µM.

The compound `NC(=O)c1cnn(-c2ccc(F)cc2)c1-c1ccncc1` [Example 16, 1-(4-Fluorophenyl)-5-(4-pyridinyl)-1H-pyrazole-4-carboxamide] displayed a melting point of 215 to 216 °C. Further, the midpoint of inhibition in data set [1], the IC50, lay at 7.72 µM. Further, in data set [2], the 50% inhibitory concentration (IC50) was over 10 µM. Also, in data set [3], the IC50 was over 10 µM.

Regarding `O=C(c1cnn(-c2ccc(F)cc2)c1-c1ccncc1)N1CCNCC1` [Example 17], the half-inhibitory concentration (IC50) in data set [1] was 65.1 µM; in data set [2] it was over 10 µM; in data set [3] it was at least 10 µM.

As for `Fc1ccc(-n2ncc(N3CCNCC3)c2-c2ccncc2)cc1` [Example 18], the half-maximal inhibitory concentration (IC50) is 35.7 µM in data set [1], over 10 µM in data set [2] and at least 10 µM in data set [3].

For the compound `COc1cc(-c2cc(C)nn2-c2cccc(C)c2)ccn1` [Example 22, 2-Methoxy-4-[1-(3-methylphenyl)-3-methyl-1H-pyrazol-5-yl]pyridine], the 50% inhibitory concentration (IC50) is 0.079 µM in data set [1], 1.9 µM in data set [2] and 1.31 µM in data set [3].

Turning to `Cc1cccc(-n2nc(C)cc2-c2cc[nH]c(=O)c2)c1` [Example 23, 4-[1-(3-Methylphenyl)-3-methyl-1H-pyrazol-5-yl]-2-pyridone], the melting point was 182 to 183 °C. This compound registered an IC50 in data set [1] of 9.55 µM. In data set [2], this compound showed a half-inhibitory concentration (IC50) of 2.4 µM. Moreover, the half-maximal inhibitory concentration (IC50) in data set [3] was at least 10 µM.

`Cc1cccc(-n2nc(C)cc2-c2ccnc(NCCO)c2)c1` [Example 26, 2-(2-Hydroxyethylamino)-4-[1-(3-methylphenyl)-3-methyl-1H-pyrazol-5-yl]pyridine]: the IC50 amounted to 0.156 µM in data set [1], 0.1 µM in data set [2] and 0.21 µM in data set [3].

`Cc1cccc(-n2nc(C)cc2-c2ccnc(N(C)Cc3ccccc3)c2)c1` [Example 27, 2-(N-Methylbenzylamino)-4-[1-(3-methylphenyl)-3-methyl-1H-pyrazol-5-yl]pyridine]: the half-inhibitory concentration (IC50) was over 100 µM in data set [1], over 10 µM in data set [2] and at least 10 µM in data set [3].

Turning to `Cc1cccc(-n2nc(C)cc2-c2ccnc(OCc3ccccc3)c2)c1` [Example 28, 2-Bezyloxy-4-[1-(3-methylphenyl)-3-methyl-1H-pyrazol-5-yl]pyridine], the IC50 is 0.843 µM in data set [1], over 10 µM in data set [2] and 2.64 µM in data set [3].

Take `Fc1ccc(-n2nccc2-c2ccnc(NCc3ccccc3)c2)cc1` [Example 29, 2-(Benzylamino)-4-[1-(4-fluorophenyl)-1H-pyrazol-5-yl]pyridine]: the IC50 came to 0.129 µM in data set [1], 1.3 µM in data set [2] and 0.24 µM in data set [3].

Consider `O=C(O)c1cnn(-c2ccc(F)cc2)c1-c1ccncc1` [Example 43], for which the concentration for half-maximal inhibition (IC50) in data set [1] was 65.1 µM; in data set [3], at least 10 µM.

As for `Fc1ccc(-n2nccc2-c2ccnc(Cl)c2)cc1` [Example 45, 2-Chloro-4-[1-(4-fluorophenyl)-1H-pyrazol-5-yl]pyridine], the IC50 is 1.06 µM in data set [1], 8.1 µM in data set [2] and at least 10 µM in data set [3].

On to `Cc1cc(-c2ccnc(Cl)c2)n(-c2cccc(F)c2)n1` [Example 46, 2-Chloro-4-[1-(3-fluorophenyl)-3-methyl-1H-pyrazol-5-yl]pyridine], for which the IC50 in data set [1] is 67.7 µM; in data set [3], over 10 µM.
